{"source": "patent US4804502A", "about": "“Vitamin D compounds” (priority 1988, dated 1989)", "key": {"[1]": {"system": "HL-60 promyelocytic leukemia cells", "assay": "Inhibition of proliferation of HL-60 cells", "assay_type": "cell-based", "settings": "Homo sapiens, HL-60, 192 h, 8 days; for inhibition at 0.001 µM: 0.1 × 10^-8 M; for inhibition at 0.01 µM: 1 × 10^-8 M; for inhibition at 0.1 µM: 10 × 10^-8 M; for pIC50: from dose response curves, read-out: ID50 (concentration which reduced the cell number by 50%)", "description": "(§1) Inhibition of Cell Proliferation and Induction of Cell Differentiation\n(§2) Cultures of HL-60 promyelocytic leukemia cells were established in the absence (control) and presence of various concentrations of test compounds. After an 8-day incubation period, the cultures were evaluated for proliferation of tumor cells, cell viability, and cellular differentiation. Proliferation was assessed by directly enumerating the increased number of tumor cells resulting from cell division during incubation. Viability was assessed by dye exclusion technique to learn whether any of the compounds were lethal to the cultured HL-60 cells. Cellular differentiation was evaluated by determining the number of cells which had acquired the enzymes necessary to support a respiratory burst, a characteristic of mature macrophages and granulocytes.\n(§3) Tissue culture medium used in these experiments was RPMI-1640 supplemented to 10% v/v with heat-inactivated fetal bovine serum and to an additional 1.6 mM with L-glutamine.\n(§4) Test compounds were dissolved in sufficient ethanol to yield stock solutions of 1×10^-2 or 1×10^-3 molar. Reduced lighting was used when working with compounds and stock solutions were stored in the dark at -20° C. in an argon atmosphere. Compounds were diluted in tissue culture medium and added to flasks containing HL-60 cells to achieve the final concentration described in each test.\n(§5) The HL-60 tumor cell line was originally derived from a patient with promyelocytic leukemia and was obtained from the American Type Culture Collection. The cells were maintained in liquid culture by serial passage twice weekly in tissue culture medium. […] In any test, three replicate flasks were incubated without compound (control) or in the presence of varying concentrations of test compound. Ethanol, used as the vehicle, was kept constant in all dilutions in each test and had no effect on cell proliferation, viability or cell differentiation at the concentrations used (≤0.1%). After 8 days of incubation at 37° in a humidified atmosphere of 5% CO2 in air, cultures were evaluated for tumor cell proliferation, viability and differentiation.\nQuantitation of proliferation was done by enumerating the number of HL-60 cells in each individual flask (3 flasks per experimental point) using an Elzone electronic particle counter. Results are shown as the percent reduction of cell number calculated for each concentration tested according to the formula: [formula] The results are also expressed as the concentration which reduced the cell number by 50% (ID50)."}, "[2]": {"system": "HL-60 promyelocytic leukemia cells", "assay": "Induction of differentiation of HL-60 cells (NBT reduction)", "assay_type": "cell-based, human", "settings": "8 days; for pEC50: Homo sapiens, HL-60, 192 h, from dose response curves, read-out: ED50 (concentration which induced differentiation of 50% of the cells)", "description": "as §1, §2, §3, §4, §5\nQuantitation of differentiated cells was done by the biochemical method of nitroblue tetrazolum (NBT) reduction. One million HL-60 cells were pooled from replicate cultures, centrifuged at 220×g for 10 minutes, and resuspended in 1 ml of Ca^++ -Mg^++ -deficient phosphate buffered saline prepared by supplementing Ca^++ -Mg^++ -free phosphate buffered saline (PBS) to 20% v/v with heat-inactivated fetal bovine serum). Nitroblue tetrazolium was dissolved at 0.5 mg per ml in Ca^++ -Mg^++ -free PBS with gentle heating and frequent mixing. A stock solution of 1 mg tetradecanoyl phorbol acetate (TPA) per ml in ethanol, stored at -20°, was diluted 100-fold with Ca^++ -Mg^++ -free PBS to prepare a working solution. The test was done by adding 1 ml of NBT solution and 0.02 ml of the working TPA solution to the HL-60 cells. After mixing, the tubes were incubated in a 37° water bath for 25 minutes then transferred to ice. Undifferentiated and differentiated cells present in any sample were determined microscopically by surveying a minimum of 300 cells per sample. Cells without pigmented granules (clear cells) were judged to be undifferentiated while those containing greater than 3 blue-black formazan granules were scored as differentiated. Generally, differentiated cells were intensely pigmented clearly indicating the enzymatic conversion of NBT to formazan. Results are expressed as the percentage of differentiated cells present in any sample as calculated according to the formula: [formula] The results are also expressed as the concentration of compound which induced differentiation of 50% of the cells (ED50)."}, "vitamin D deficient rats": {"system": "vitamin D deficient rats", "settings": "3 weeks"}, "[3]": {"settings": "read-out: % Reduction in cell number"}}, "note": "pEC50, pIC50: −log10 of the molar value. Where two headings read alike, the source gives them in different places."}
{"smiles": "C=C1/C(=C\\C=C2/CCC[C@]3(C)[C@@H]([C@H](C)CC#CC(C)(C)O)CC[C@@H]23)C[C@@H](O)C[C@@H]1O", "note": "[Compound A, 1α,25-dihydroxy-23-yne-cholecalciferol]", "values": [{"measurement": "inhibition at 0.001 µM", "setting": "[1]; [3]", "result": 30, "unit": "%"}, {"measurement": "inhibition at 0.01 µM", "setting": "[1]; [3]", "result": 67, "unit": "%"}, {"measurement": "inhibition at 0.1 µM", "setting": "[1]; [3]", "result": 85, "unit": "%"}, {"measurement": "pIC50", "setting": "[1]", "result": 8.22}, {"measurement": "% Differentiated cells", "setting": "[2]; 0.1 × 10^-8 M", "result": 15, "unit": "%"}, {"measurement": "% Differentiated cells", "setting": "[2]; 1 × 10^-8 M", "result": 54, "unit": "%"}, {"measurement": "% Differentiated cells", "setting": "[2]; 10 × 10^-8 M", "result": 98, "unit": "%"}, {"measurement": "pEC50", "setting": "[2]", "result": 8.05}]}
{"smiles": "C=C1/C(=C\\C=C2/CCC[C@]3(C)[C@@H]([C@H](C)CC#CC(O)(C(F)(F)F)C(F)(F)F)CC[C@@H]23)C[C@@H](O)C[C@@H]1O", "note": "[Compound B]", "values": [{"measurement": "inhibition at 0.0001 µM", "setting": "[1]; 0.01 × 10^-8 M, read-out: % Reduction in cell number", "result": 15, "unit": "%"}, {"measurement": "inhibition at 0.001 µM", "setting": "[1]; [3]", "result": 31, "unit": "%"}, {"measurement": "inhibition at 0.01 µM", "setting": "[1]; [3]", "result": 85, "unit": "%"}, {"measurement": "inhibition at 0.1 µM", "setting": "[1]; [3]", "result": 89, "unit": "%"}, {"measurement": "pIC50", "setting": "[1]", "result": 8.70}, {"measurement": "% Differentiated cells", "setting": "[2]; 0.01 × 10^-8 M", "result": 13, "unit": "%"}, {"measurement": "% Differentiated cells", "setting": "[2]; 0.1 × 10^-8 M", "result": 29, "unit": "%"}, {"measurement": "% Differentiated cells", "setting": "[2]; 1 × 10^-8 M", "result": 95, "unit": "%"}, {"measurement": "% Differentiated cells", "setting": "[2]; 10 × 10^-8 M", "result": 98, "unit": "%"}, {"measurement": "pEC50", "setting": "[2]", "result": 8.70}, {"measurement": "Bone Mass", "setting": "vitamin D deficient rats; daily dose 18 ng", "result": "385 ± 77", "unit": "mm^3 /cm^3"}, {"measurement": "Serum Ca^2+", "setting": "vitamin D deficient rats; daily dose 18 ng", "result": "15.63 ± 0.36", "unit": "mg/dL"}, {"measurement": "Serum PO4^2-", "setting": "vitamin D deficient rats; daily dose 18 ng", "result": "7.66 ± 0.17", "unit": "mg/dL"}, {"measurement": "Bone Mass", "setting": "vitamin D deficient rats; daily dose 72 ng", "result": "746 + 48 mm^3 /cm^3"}, {"measurement": "Serum Ca^2+", "setting": "vitamin D deficient rats; daily dose 72 ng", "result": "15.23 ± 0.22", "unit": "mg/dL"}, {"measurement": "Serum PO4^2-", "setting": "vitamin D deficient rats; daily dose 72 ng", "result": "6.34 ± 0.26", "unit": "mg/dL"}]}
